Data as given in a melting point compilation (Tetko et al.; mined from patent text by program, amines drawn as free bases though some values may be those of a salt).

| SMILES | melting point [°C] |
| --- | --- |
| O=C(Cc1ccc([N+](=O)[O-])cc1)CN1C(=O)c2ccccc2C1=O | 184 |
| NC(=O)CCCC1Cc2ccccc2C1 | 116 to 118 |
| CC#CCOc1ccc(SC(C(=O)NO)c2cccc3ccccc23)cc1 (centres undefined) | 140 |
| CCn1ncc2c(NCC3CC3)c3ccccc3nc21 | 228 to 230 |
| CC1(C)CC(=O)Nc2cc3nc(-c4ccc(OS(C)(=O)=O)cc4)[nH]c3cc21 | 209 to 215 |
| CCCCCCCc1ccnc2c(O)cccc12 | 92 to 93.5 |
| COc1cc(C=CC(=O)O)ccc1NC(C)=O | 222 to 230 |
| N#Cc1cc2c3c(cccc3c1N1CCCCC1)C(=O)N(O)C2=O | > 250 |
| FC(F)(F)c1ccc2c(c1)nc(/C=C/c1ccccc1)n2-c1ccccn1 | 144 to 145 |
| Cc1ccc2c(c1)CNCC2c1ccc(O)c(O)c1 (centres undefined) | 192 to 195 |
| Cc1cc(C)c2cc3c(cc2n1)C(NCCc1ccccc1)C(O)C(C)(C)O3 (centres undefined) | 144 to 147 |
| O=C1NC(=O)C(c2ccc(-c3ccccc3)cc2)(N2CCN(c3ccc(N4C(=O)CCC4=O)cc3)CC2)C(=O)N1 | 310 to 311 |
| CN(O)C(=O)NCCCCCCOc1ccc(-c2ccccc2)cc1 | 148 to 150 |
| Cc1ccc(S(=O)(=O)OCC2Cc3cccc(-c4cccc(C(F)(F)F)c4)c3O2)cc1 (centres undefined) | 90 to 93 |
| CCC(=O)OC1(C(=O)C(O)OC(=O)C(NC(=O)OC(C)(C)C)C(C)C)CCC2C3CC(C)C4=CC(=O)C=CC4(C)C3C(O)CC21C (centres undefined) | 110 to 130 |
| O=C(C=Cc1ccc(Oc2ccccc2)cc1)c1ccc(C2CCCCC2)cc1 | 161 |
| CC(=O)c1ccc2c(c1)N(C1CCN(CCc3ccc(F)cc3)CC1)CC2 | 90 to 92 |
| O=Cc1ccc2c(c1)ncn2-c1cccc(Br)c1 | 179 to 181 |
| O=c1c2cc(OCc3ccccc3)ccc2[nH]c2c([N+](=O)[O-])ccc(Cl)c12 | 216 to 217 |
| COC1=C(OC)C(=O)C(CCCCC[C@H]2CC[C@H](O)CC2)=C(C)C1=O | 49 to 51 |
| O=C(CCl)Oc1ccccc1CCC1SCCN1C(=O)CCl (centres undefined) | 88 to 89 |
| COC(=O)c1cccc2c([N+](=O)[O-])cccc12 | 105 |
| CCCCCCc1ccc(C(=O)O)cc1[N+](=O)[O-] | 106 to 108 |

| SMILES | melting point [°C] |
| --- | --- |
| COC(=O)Cc1nc(-c2ccc(OC)c(OC)c2)c2cc(Cl)ccc2n1 | 144 to 145 |
| COc1ccc(-c2cc3oc(=O)c4ccccc4c3nn2)cc1 | 270 |
| CCOC(=O)CCc1cc(OCC(=O)NNC(C)=O)nn1Cc1ccc(Cl)cc1Cl | 167 to 170 |
| COC(=O)NC[C@H]1CN(c2cc(F)c(N3CCC(n4ncnn4)CC3)c(F)c2)C(=O)O1 | 168 to 170 |
| CNC(=O)OC1CCC2(CO2)C(C2(C)OC2CC=C(C)C)C1OC (centres undefined) | 92 to 93 |
| CCc1nc2cc(F)ccc2c(=O)n1NC(=O)C(C)c1ccccc1 (centres undefined) | 57 to 63 |
| [O-][N+](O)=CCN=Nc1ccccc1 | 95 to 97 |
| C=CC(=O)N1C/C(=C\c2ccc([N+](=O)[O-])cc2)C(=O)/C(=C/c2ccc([N+](=O)[O-])cc2)C1 | 170 to 172 |
| COc1cc(C)nc(-n2nc(C)n(NS(=O)(=O)c3ccccc3OC(F)(F)F)c2=O)n1 | 248 |
| CCN(CCCCNC(=O)c1ccc2ccccc2c1)C1CCc2ncsc2C1 (centres undefined) | 120 |
| O=C1OC(c2ccc(Cl)cc2)C(Cn2cncn2)(c2ccc(Cl)cc2Cl)O1 (centres undefined) | 178 to 179 |
| O=C/C=C/c1ccc(C(F)(F)F)cc1 | 60 to 61 |
| CNS(=O)(=O)N1CCn2c(c(C(N)=O)c(Cl)c2-c2ccccc2)C1 | 193 to 196 |
| Cc1cc(Cl)cc(C(=O)NCC(C)O)c1NC(=O)c1cc(C(F)(F)F)nn1-c1ncccc1Cl (centres undefined) | 193 to 197 |
| O=C1CC2(CCN(Cc3ccccc3)CC2)C(=O)N1OCc1ccccc1 | 146 to 152 |
| COc1ccc2c(Nc3cccc(CCO)c3)c3ccccc3nc2c1 | 186 to 188 |
| CCc1n[nH]c(CC)c1CCCCCCOc1ccccc1 | 119 to 121 |
| O=C1N(Cc2ccccn2)c2ccccc2C12COc1ccc3c(c12)OCCO3 (centres undefined) | 132 to 134 |
| CS(=O)C1C(=O)Nc2ccc(C(F)(F)F)cc21 (centres undefined) | 141 to 142 |
| CN(C)c1nc2c(NCc3ccccc3)ncnc2n1C1OC(CO)C(O)C1O (centres undefined) | 152 to 156 |
| O=[N+]([O-])c1ccc(I)c(-c2cc([N+](=O)[O-])ccc2I)c1 | 230 to 232 |
| COCCNC(=O)c1cccc(-c2cccc3cc(Cc4cc(Cl)cc(Cl)c4)sc23)c1 | 109 to 110 |
| COc1cc([N+](=O)[O-])c(NC(C)=O)cc1OC(F)F | 116 to 117 |

| SMILES | melting point [°C] |
| --- | --- |
| CCCCNc1cc(C=NO)cc(S(N)(=O)=O)c1Oc1ccccc1 | 226 to 228 |
| O=C1CCCc2nc3cc(Cl)ccc3c(NCc3ccccc3)c21 | 141 to 143 |
| CCOC(=O)C(C(=O)OCC)C(=O)c1ccc2oc3ncccc3c(=O)c2c1 | 137 to 138 |
| N=C(Nc1cccc(NC(=O)/C=C/c2ccccc2Cl)c1)c1ccccc1 | 262 to 264 |
| Cc1ccc(CSC[C@H](NC(=O)[C@H](C)CSC(=O)c2ccccc2)C(=O)O)cc1 | 115 to 126 |
| Cn1nc2c(sc3ccccc32)c1N | 233 |
| CC(=O)N(C)Nc1nnc(-c2ccccc2C)s1 | 106 to 108 |
| CC(=O)c1ccc(SC(=O)N(C)C)cc1OCC(=O)O | 173 to 174 |
| CCOCc1nc2c(N)nc3cc(-c4cccnc4)cnc3c2n1CC(C)C | 177 to 179 |
| C#CCOc1cc(-n2nc(C)c(Cl)c2C)c(Cl)cc1Cl | 156 to 158 |
| CN1CC[C@@]2(c3cccc(O)c3)C[C@@H](N=[N+]=[N-])CC[C@H]2C1 (racemic) | 139 to 140 |
| O=C(Nc1ccc(C(F)(F)F)cc1Cl)[C@H]1[C@H](c2ccccc2)C12CCCC2 (relative stereo) | 131 to 133 |
| O=C(COc1ccccc1)c1ccc(Cl)cc1 | 80 to 83 |
| O=C(c1ccc([N+](=O)[O-])cc1)N1CC2CC2(c2ccc(Cl)cc2)C1 (centres undefined) | 177 to 180 |
| COCc1noc(-c2ncn3c2CN(C)C(=O)c2c(Cl)cccc2-3)n1 | 213 to 215 |
| Cc1cc(C)cc(C(=O)N2CCC(=O)CC2Cc2ccccc2)c1 (centres undefined) | 108 |
| FC(F)(F)C1(c2cc(Cl)cc(Cl)c2)CC(c2ccc(-n3cncn3)cc2)=NO1 (centres undefined) | > 250 |
| C[C@H](NC(=O)OC(C)(C)C)C(=O)N(CC(=O)N1CCC[C@H]1C(=O)OCc1ccccc1)C1Cc2ccccc2C1 | 135 to 136 |
| O=P(O)(O)C(F)(F)c1ccc(CN(Cc2ccc(C(F)(F)P(=O)(O)O)cc2)S(=O)(=O)c2ccccc2Cl)cc1 | 170 to 172 |
| S=C(NCc1cccnc1)NC(=Nc1ccccc1)c1ccccc1 | 146 to 147 |
| O=C(CCc1ccccc1)Oc1n[nH]c(=O)c2nc3cc(Cl)cc(Cl)c3c(O)c12 | > 395 |

Further lines, results first:

| melting point [°C] | SMILES |
| --- | --- |
| 215 to 220 | CC(=O)Nc1c(O)cc(C(=O)O)cc1[N+](=O)[O-] |
| 172 | CC(=O)NC(=Cc1ccccc1)C1=NC(=Cc2ccc(F)cc2)C(=O)O1 |
| 73 to 74 | COc1cc(C(=O)C(Br)CCC2CCCCC2)c(OC)cc1Cl (centres undefined) |
| 160 to 161 | FC(F)(F)c1ccc(-c2ccc3nncn3n2)cc1 |
| 78 to 80 | COc1ccc(N)c(C2OCCO2)c1OC |
| 140 to 141 | c1cc(-c2cn3c(n2)CCC3)ccn1 |
| 127 to 128 | COc1cccc(-c2coc3ccc(-c4nnc(C)o4)cc23)c1 |
| 234 to 235 | Nc1nnc(-c2ccnc3[nH]c(CCc4ccccc4)cc23)o1 |
| 191 to 192 | O=c1[nH]nnn1-c1ccc(C(F)(F)F)cc1 |
| 183 to 185 | Nc1scc2c1C(=O)c1c(Cl)cccc1-2 |
| 188 to 190 | CCOC(=O)C=Cc1cccc(Nc2ccc3nc[nH]c3c2)c1 |
| 239 to 241 | Oc1ccc(Nc2nnc(Cc3ccncc3)c3ccccc23)cc1 |
| 70 | C[Si](C)(C)CCOCn1ccnc1-c1c(N)n(CC2CC2)c2nc(Cl)ccc2c1=O |
| 84 to 85 | Cc1oc(-c2ccccc2)nc1COc1ccc(CON=C(CCCCCC(=O)O)c2ccccc2)cc1 |
| 175 to 177 | CCS(=O)(=O)Nc1cc(C(=O)Nc2ccccc2)ccc1OC |
| 148 to 150 | CCCCCCCOc1ccc(C(=O)Nc2ccccc2OCc2nnn[nH]2)cc1 |

| melting point [°C] | SMILES |
| --- | --- |
| 80 to 83 | CC(C)(C)[Si](C)(C)Oc1ccc(N)c([N+](=O)[O-])c1 |
| 160 to 161 | O=C(NC1CCCCC1)c1ccn2nc(-c3ccccc3)c(-c3cccc(Cl)c3)c2n1 |
| 155 to 157 | COC(=O)c1nn(-c2ccccc2F)cc(OC)c1=O |
| 209 to 211 | COC(=O)c1nc2cc(C)ccc2c(O)c1C(=O)OC |
| 115 to 118 | CCCNC(=O)c1ccc(C)c(-c2nc(NCCN(C)C(=O)OC(C)(C)C)nc3c2ccc(=O)n3-c2c(F)cccc2F)c1 |
| 112 to 116 | CSc1nc(Cl)c(-c2c(F)cc(F)cc2F)c(NC(C)C)n1 |
| 121 | COc1cc(C)cc(OC)c1C(=O)c1ccccc1N(C)C(=O)CBr |
| 221 to 223 | O=C(C=Cc1ccc(O)c(O)c1)C=Cc1ccc(O)c(O)c1 |
| 199 to 201 | CN(C)c1nc2cc(NC(=O)c3c(C(=O)N4CCCC4)cnn3C)ccn2n1 |
| 140 to 142 | CCOC(=O)c1cnc2n(c1=O)C(C)CC=C2N(C)c1ccccc1 (centres undefined) |
| 138 to 140 | O=C(c1c(F)cccc1F)N1COCN(c2ccc(S(=O)C(F)F)cc2F)C1=O (centres undefined) |
| 169 to 170 | N#Cc1ccc(CCn2ccn(C3CCc4ccccc4C3)c2=S)cc1 (centres undefined) |
| 101 to 110 | CCOC(=O)c1cc(C(C)=O)c(=O)[nH]c1C(=O)OCC |
| 202 to 203 | Nc1ncnc2c1c(-c1ccc(F)cc1)cn2-c1ccccc1 |
| 224 to 226 | CC1=C(C(=O)N[C@H](C)c2ccccc2)[C@H](c2ccc(F)cc2Cl)N=C(c2nccs2)N1 |
| 117 to 119 | O=C(NCCCc1ccncc1)N(CCCCC(F)(F)F)CCC12CC3CC(CC(C3)C1)C2 |
